Results as given in article PMC2010042, “Effects of pretreatment with phenobarbitone and phenytoin on the pharmacokinetics and toxicity of phenytoin on the pharmacokinetics and toxicity of misonidazole in mice” (British Journal of Cancer, 1979).
Counter-ions that a name gives are not always drawn.

Key:
[1] = test system: BALB/c male mice; conditions: MIS single i.p. 1.117-2.5 g/kg
[2] = test system: body temperature; conditions: 1 g/kg MIS; all 3 pretreated groups (saline, phenobarbitone, phenytoin)
[3] = preliminary studies in man
[4] = test system: hypoxic tumour cells; set-up: method as in Brown et al., 1979; conditions: at equal tumour concentrations; ref Brown et al., 1979; cited from earlier work
[5] = in vivo; conditions: male, BALB/c, mouse, ip, LD50(7d) (95% confidence limits), MIS single i.p.
[6] = 1 g/kg; ref Brown et al., 1979; cited from earlier work
[7] = test system: man; conditions: ref Dische et al., 1977; Urtasun et al., 1978; cited from earlier work
[8] = Pharmacokinetics of MIS and Ro 05-9963 in plasma/blood, brain and tumour by HPLC after 1 g/kg MIS i.p.; conditions: for concentrations in whole blood compared with plasma: control studies
[9] = test system: mice; set-up: method as in Brown et al., 1979; conditions: ref Brown et al., 1979; cited from earlier work
[10] = set-up: method as in Adams et al., 1976; conditions: ref Adams et al., 1976; cited from earlier work
[11] = Pharmacokinetics of MIS and Ro 05-9963 after 1 g/kg MIS i.p. in B10 mice bearing the MC6B tumour; conditions: enzyme inducers; B10 strain
[12] = test system: microsomal drug-metabolizing enzymes; experiment: Pentobarbitone sleeping-time after pretreatment (index of microsomal enzyme induction); assay type: in vivo, tumour-free BALB/c mice; conditions: 60 mg/kg pentobarbitone i.p. on Day 9 after pretreatment regime
[13] = test system: MC6B and EMT6 tumours; experiment: Tumour volume in pretreated mice; assay type: in vivo; conditions: usually not significant (P > 0.05)
[14] = Body weight during pretreatment regime
[15] = test system: liver weight; experiment: Liver/body weight ratio after pretreatment; assay type: in vivo, tumour-free BALB/c mice; conditions: Day 9 after pretreatment regime
[16] = Approximate acute LD50 of single doses of phenobarbitone and phenytoin; conditions: male, BALB/c, mouse, in vivo
[17] = phenobarbitone or phenytoin pretreatment (Discussion)

## COCC(O)Cn1ccnc1[N+](=O)[O-] (stereo not shown) [MIS, 1-(2-nitroimidazol-1-yl)-3-meth-oxypropan-22-ol]
[1]
  time of deaths after treatment: 3 to 4 days
[2]
  change in body temperature after MIS: marked decrease in temperature
[3]
  MIS t1/2 and AUC with phenytoin therapy: both reduced
[4]
  radiosensitizing efficiency of MIS and Ro 05-9963: equally good radiosensitizers
[5]; pretreatment phenobarbitone
  LD50 at 7 days: 1900 mg/kg
[5]; pretreatment phenytoin
  LD50 at 7 days: 1780 mg/kg
[5]; pretreatment saline (control)
  LD50 at 7 days: 1540 mg/kg
[6]
  t1/2 of MIS after bilateral kidney ligation: prolonged after bilateral kidney ligation
[7]
  peripheral neuropathy in man: dose-limiting toxicity
[8]; 1 g/kg MIS i.p., phenobarbitone or phenytoin pretreatment vs control, plasma, brain and tumour
  reduction of apparent elimination half-life (t1/2) for MIS: 20-67%
[8]; 1 g/kg MIS i.p., phenobarbitone or phenytoin pretreatment, plasma, brain and tumour
  decrease of area under the curve (AUC) for MIS: 23-49%
[8]
  concentrations in whole blood compared with plasma: identical
[8]; male, BALB/c, mouse, tumour and brain / plasma, ip, 1 g/kg
  Kp: ~0.5
[8]; phenobarbitone and phenytoin pretreatment, plasma, brain or tumour
  effect of pretreatment on peak MIS concentration: did not alter
[8]; [17]
  decrease of blood (or plasma) MIS AUC: 25- 60%
  shortening of apparent t1/2 for MIS elimination from blood or plasma: 35-60%

## O=[N+]([O-])c1nccn1CC(O)CO (stereo not shown) [Ro 05-9963, 1-(2-nitroimidazol-1-yl)-2,3-propandiol]
[9]
  LD50 compared with MIS: higher LD50 than MIS
[4]
  radiosensitizing efficiency of MIS and Ro 05-9963: equally good radiosensitizers
[10]
  lipophilicity compared with MIS: considerably less lipophilic than MIS
[11]
  increase of blood (or plasma) AUC for metabolite Ro 05-9963: 100%
[8]
  concentrations in whole blood compared with plasma: identical
[8]; enzyme inducers, BALB/c mice
  increase of blood (or plasma) AUC for metabolite Ro 05-9963: 10-60%

## CCC1(c2ccccc2)C(=O)NC(=O)NC1=O [phenobarbitone]
[12]
  pentobarbitone sleeping-time, % of untreated control: 36%
  pentobarbitone sleeping-time, mean: 26 min
[13]
  tumour volumes lower than the saline controls: up to 10%
[14]; normally completely regained by Day 9
  initial weight loss during pretreatment regime: up to 10%

## O=C1NC(=O)C(c2ccccc2)(c2ccccc2)N1 [phenytoin, 5.5-diphenylhydantoin, sodium salt]
[15]
  liver wt/body wt, % of untreated control: 124%
[12]
  pentobarbitone sleeping-time, % of untreated control: 30%
[13]
  tumour volumes lower than the saline controls: up to 10%
[14]; mouse, in vivo
  weight loss during pretreatment: little or no weight loss
[16]
  LD50: 200 to 240 mg/kg
